Measured values as given in article PMC7892475, “C-Terminal Amination of a Cationic Anti-Inflammatory Peptide Improves Bioavailability and Inhibitory Activity Against LPS-Induced Inflammation” (Frontiers in Immunology, 2021).

Legend:
[1] = test system: RAW264.7 cells; assay: Cellular uptake and localization of FITC-labeled peptides (confocal microscopy, flow cytometry); type: cell-based, mouse; conditions: N-terminus FITC-labeled peptide, 10 μg/ml, 24 h, 37°C, confocal microscopy and flow cytometry (average FITC intensity)
Description: RAW264.7 cells were treated with N-terminus FITC-labeled peptides at 10 μg/ml for 24 h at 37°C; in the dark. Then, the RAW264.7 cells were rinsed with PBS three times, fixed with paraformaldehyde and washed with PBS. The cell nuclei were stained with DAPI (diluted 1:500 in PBS) (Sigma, USA) for 5 min, and the cells were washed with PBS. The above cells were spread on a glass slide, fixed and observed with a Leica TCA sp5 confocal microscope (Germany).
RAW264.7 cells were stained with 10 μg/ml N-terminus FITC-labeled peptides at 37°C in the dark for 24 h. Afterwards, the RAW264.7 cells were harvested and rinsed with PBS five times. The average FITC intensity in the cells was measured via flow cytometry.

[2] = Reverse-phase HPLC retention time as measure of peptide hydrophobicity; type: physicochemical; conditions: HPLC on reverse-phase matrix, aqueous solution; used by the paper as measure of hydrophobicity
Text: The retention time of peptides on a reverse-phase matrix has been reported to be related to peptide hydrophobicity ([34]).

[3] = test system: LPS-stimulated RAW264.7 cells; assay: Time of addition experiment (peptide pretreatment, LPS neutralization, post-treatment) in RAW264.7 cells; type: cell-based, mouse; conditions: ELISA
Description: To identify the mechanisms underlying the anti-inflammatory effects, three different types of treatments were performed as follow.
Briefly, 10 μg/ml peptide was added to the cell culture medium and incubated with cells for 1 h at 37°C Afterwards, the RAW 264.7 cells were washed with PBS and cultured with fresh medium containing 100 ng/ml LPS for 12 h at 37°C. After treatment, TNF-α, IL-6, and IL-1β secretion in the cell supernatants was assessed.
The peptides (10 μg/ml) were incubated with 100 ng/ml LPS directly for 1 h at 37°C. RAW 264.7 cells were stimulated with these mixtures for 12 h at 37°C. Afterwards, the TNF-α, IL-6 and IL-1β levels in the cell supernatants were assessed.
Briefly, 100 ng/ml LPS was added to the cell culture medium and incubated with cells for 1 h at 37°C. Afterwards, the RAW 264.7 cells were washed with PBS and cultured with fresh medium containing 10 μg/ml peptides for 12 h at 37°C. Afterwards, the TNF-α, IL-6, and IL-1β levels in the cell supernatants were assessed.
The levels of tumor necrosis factor (TNF)-α, interleukin (IL)-6, and IL-1β in cell culture supernatants and the levels of TNF-α, IL-6, and IL-1β in the serum of mice were detected using commercial ELISA kits (eBioscience, San Diego, USA) according to the manufacturer’s instructions. The levels of serum alanine amino transferase (ALT) and aspartate amino transferase (AST) were detected using commercial reagent kits (Nanjing Jiancheng Bioengineering Institute, Nanjing, China). The activity of myeloperoxidase (MPO) in the liver of mice was detected using an ELISA kit (Boster, Wuhan, China) according to the manufacturer’s instructions.

[4] = LPS neutralization, chromogenic end-point Tachypleus Amebocyte Lysate (TAL) assay; type: binding, E. coli; conditions: chromogenic TAL assay, LPS 1.0 U/ml, 0 to 64 μg/ml peptide
Description: The neutralization of LPS by the peptides was assessed through a quantitative Chromogenic End-point Tachypleus Amebocyte Lysate (CE TAL) assay using a QCL-1000 kit (XIAMEN BIOENDO TECHNOLOGY CO., China). LPS (E. coli, O111:B4, Sigma-Aldrich, USA) at a final concentration of 1.0 U/ml was incubated with various concentrations of the peptides (0 to 64 μg/ml final concentration) at 37°C for 15 min. Afterwards, the mixtures were incubated with TAL assay reagent at 37°C; for 6 min, and the absorbance was measured at 540 nm.

[5] = test system: TLR4/MD-2 complex; assay: Surface plasmon resonance binding; conditions: SPR, Biacore X100, PBS with 0.05% Tween 20, 30 μl/min, 1:1 model, 0 to 10 μM
Description: SPR assays were performed using a Biacore X100 instrument (GE Healthcare, Pittsburgh, PA, USA). PBS containing 0.05% Tween 20 was used as the running buffer. The running buffer was continuously passed into the reaction chamber at 30 μl/min. Immobilization of CTP-NH2 on the chip surface was performed according to an amino coupling protocol. […] Running buffer was injected into the empty channel as a reference. To regenerate the chip surface at the end of each experiment, 10 mM Gly-HCl buffer (pH 2.5) was injected. ProteOn manager software (version 2.0) was used to analyze the experimental data. The binding curves were processed for the start injection alignment and baseline. A reference-subtracted sensorgram was then fitted to the curves describing a homogeneous 1:1 model. Data from the protein surfaces were grouped together to fit the association kinetic rate constant (Ka) and the dissociation rate constant (Kd). The equilibrium dissociation constant (KD) for the peptide-TLR4/MD-2 interaction was calculated as follows: […]

Question: What does the source list for “RWGRFLRKIRRFRRKDVT-NH2 [CTP-NH2, C-terminal amidated derivative peptide of CTP]”?
Answer: cellular uptake and localization [1]: significant cellular uptake and a dispersed distribution compared with CTP; Retention time [2]: 11.96 min; TNF-α and IL-6 level, peptide used to pretreat cells or added after LPS induction ([3]; 10 μg/ml peptide 1 h then wash and 100 ng/ml LPS 12 h, or LPS 1 h, wash, then peptide 12 h): reduced the concentration of TNF-α; TNF-α and IL-6 release, peptide incubated with LPS ([3]; 10 μg/ml peptide incubated with 100 ng/ml LPS 1 h at 37°C, mixture on cells 12 h): more potency than CTP; LPS neutralization activity [4]: stronger than that of CTP; Ka (association kinetic rate constant) [5]: 1.65e+07 M⁻¹ s⁻¹
